# Test results reported in US4720497A, “6-purinyl N-/2-chloroethyl/carbamate and thiocarbamate and process for the preparation thereof” (SPOFA, Spojene Podniky pro Zdravotnickou Vyrobu, priority 1984, dated 1988).
# pIC50: −log10 of the molar value. “Also recorded” adds a separate entry of the source. Where two headings read alike, the source gives them in different places.
# Experiments:
# Ehrlich Carcinoma cells = test: Cytotoxicity in vitro: 14C precursor incorporation in Ehrlich Carcinoma cells (Example 10); format: cell-based; conditions: for pIC50: Ehrlich, read-out: ID50 (14C incorporation)
# From the text: (§1) The antineoplastic activity of the compounds of the invention has been investigated by testing the compounds of the chemical group "in vivo" against experimental rodent tumors such as Crocker's sarcoma (S180), solid-type Ehrlich carcinoma (STE), kreb's ascites tumor (Kr2), all maintained in mice H, Gardner lymphosarcoma (LsG, C3H mice), P388 and L1210 leukemias (DBA2 mice), Zajdela ascites hapatoma (ZAH, Wistar rats), Yoshida ascites reticulosarcoma (Y, Wistar rats) and B16 melanoma (C57B16 mice) in experiments according to Jelinek, V. (Neoplasma 12, 469 (1969); ibid. 7, 146 (1960) and "in vitro" experiments using radioactive precursors of nucleic acids and proteins according to Miko, M. et al. (Cancer Res. 39, 4242 (1979); Neoplasma 26, 449 (1979); ibid. 16, 161--1969) with minor modifications (Mattern J.: Studies on the Drug Sensitivity of Short Term Cultured Tumor Cell Suspensions. In "Human Tumors in Short Term Culture" (Dendy, P. P. ed.), p. 301, Academic Press 1976). Therapeutic synergism has been studied by the method of Carter, W. H. et al. (cf. Cancer Res. 42, 2963--1982).
# The degree of influence on the incorporation of ^14 C from adenine-^14 C and valine-^14 C to the fraction of Ehrlich Carcinoma cells insoluble in trichloroacetic acid serves as the measure of cytotoxicity. The value ID50 is the concentration of a cytostatic that reduces the ^14 C incorporation down to 50% of the non-influencedcontrol cells.
# Yoshida tumor [1] = test: Survival of rats with implanted Yoshida tumor (Example 7); format: in vivo, female Wistar rats; conditions: Wistar rats
# From the text: as §1
# (§2) Additionally, the compounds of the present invention are useful in increasing survival time of the suitable biological subjects, namely mice and rats bearing tumors STE, ZAH and/or Y: because of the lethal nature of the test system employed, the antitumor effect of the compounds is illustrated by a side comparison of the survival time of treated animals (survival for a longer time) with the untreated control groups of animals (cf. Examples 5, 6, and 7). In these typical experiments, ten animals are in the experimental groups, and the treated groups of animals survive for a longer time than the untreated controls.
# (§3) Fifty infantile female Wistar rats weighing approximately 60 g are divided into five groups: one control and four experimental ones, 10 animals each. A lethal dose of the tumor ascites from Zajdel ascitic hepatoma is implanted intraperitoneally in all the animals. The experimental groups are treated with the substance Ia in water suspension. The suspension contains the substance Ia in such an amount that a dose of 0.4 or 0.2 ml of the suspension p.o. is equal to a dose of 200 or 100 mg Ia/Kg. This dose is applied to the experimental animals once a day, five times altogether, starting on the first day after the implantation.
# Yoshida tumor [2] = test: Survival of rats with implanted Yoshida tumor (Example 6); format: in vivo, female Wistar rats; conditions: Wistar rats
# From the text: as §1, §2, §3
# Zajdel ascitic hepatoma [3] = test: Survival of rats with implanted Zajdel ascitic hepatoma, comparison with 6-mercaptopurine (Example 8); format: in vivo, female Wistar rats; conditions: for Period of survival (% of control): Wistar rats; for antitumor effect / average period of survival vs non-treated control: in words (Example 8)
# From the text: as §1, §3
# [4] = system: Yoshida ascitic tumor cells; test: Cytotoxicity in vitro: initial velocity of 3H/14C precursor incorporation in Yoshida ascitic tumor cells (Example 11); format: cell-based; conditions: for pIC50: Rattus norvegicus, YOSHIDA
# From the text: as §1
# (§4) In analogous experiments, the degree of influence on the initial velocity of the incorporation of ^3 H from 5-iodo-2'-deoxy-(6-^3 H)uridine or that of ^14 C from a mixture of L-(U-^14 C)-aminoacids to the fraction of Yoshida ascitic tumor cells insoluble in trichloroacetic acid serves as the measure of cytotoxicity. The value IC50 is the concentration of a substance that reduces the initial velocity of the ^3 H or ^14 C incorporation down to 50% of the noninfluenced control cells.
# Yoshida ascitic sarcoma = test: Therapeutic synergism with Benfluron, survival of rats with Yoshida ascitic sarcoma (Example 9); format: in vivo, female Wistar rats; conditions: for Average period of survival (days): geometric average (fiducial limits P=0.95)
# From the text: as §1
# One hundred and twenty seven infantile female Wistar rats weighing 50-60 g are divided into sixteen groups: one control group of 25 animals and fifteen experimental groups of 6 to 7 animals. A lethal dose of the tumor ascites from Yoshida ascitic sarcoma is implanted intraperitoneally in all the animals. The experimental groups are treated with the substance Ia in water suspension, water solution of a cytostatic Benfluron (CAS 80427-58-3), or a combination of both the substances. The suspension or solution contains the substances in such a concentration that doses of 0.4 or 0.2 and 0.1 ml of the suspension/solution p.o. are equal to doses of 200 or 100 and 50 mg Ia/kg or to doses of 160, 80 or 40 mg of Benfluron/kg. Doses of the substance Ia are administered to the experimental animals once a day, four times altogether, starting on the first day after the tumor implantation. Benfluron is administered only once, on the fourth day after the tumor implantation, 7 hours after the last dose of the substance Ia.
# [5] = literature; cited from earlier work
# [6] = Toxicity and tolerability by oral route; format: in vivo, small rodents; rat; mouse; man
# From the text: The compounds described herein can be administered to suitable biological subjects, particularly mammals, for their therapeutic antitumor effects, by conventional modes of administration alone, but preferably as active ingredients with any conventional suitable non-toxic pharmaceutical carrier, dissolved or suspended, for example, in water, saline, polyethylene or polypropylene alcohols, etc. The administration is preferably by the oral route. […]. The dosage administered will be dependent upon the type of tumor for which treatment is desired, the type of biological subject involved, weight, body surface, localization of the tumor, its morphological type, the frequency of treatment, individual tolerance and responsiveness of each subject, etc; for example, by oral route, the prolonged administration of 100, 200 mg/kg daily appears to be well tolerated both in the rat and in the mouse. The assessment drawn from the biological tests is that doses of 20 mg/kg (e.g. about 740 mg/m^2) may be regarded as well tolerated in man.
# Zajdel ascitic hepatoma [7] = test: Survival of rats with implanted Zajdel ascitic hepatoma (Example 5); format: in vivo, female Wistar rats; conditions: Wistar rats
# From the text: as §1, with “2963--1982). […]” for “2963--1982).”
# Ehrlich tumor (STE) = test: Antitumor activity against implanted Ehrlich tumor (STE) in mice, tumor weight (Example 4); format: in vivo, female mice H; conditions: mice H
# From the text: as §1
# Sixty female mice H weighing approximately 20 g are divided into three groups: one control group and two experimental groups of 20 animals each. A lethal dose of the Crocker tumor (S180) homogenate is implanted subcutaneously in all the animals. The experimental groups are treated with the substance Ia in water suspension. The suspension contains the substance Ia in such an amount that a dose 0.4 or 0.2 ml of the suspension p.o. is equal to a dose 200 or 100 mg Ia/kg. This dose is administered to the experimental animals once a day, eight times altogether, starting on the fifth day after the implantation. On the fourteenth day after the implantation, a half of the animals in each group is sacrificed in ether anaesthesia, and tumors are removed and weighed. The remaining animals are left to monitor the time of death.
# tumor cells = test: Comparison of cytotoxicity of Ia and Ib in vitro, precursor incorporation (Example 12); format: cell-based
# From the text: as §1, §4
# In analogous experiments, the following values of IC50 were determined: […]
# Crocker tumor (S180) = test: Antitumor activity against Crocker tumor (S180) in mice, tumor weight (Example 3); format: in vivo, female mice H; conditions: S180, mice H, p.o. 200 or 100 mg/kg once a day, eight times; day 14
# From the text: as §1
# Sixty female mice H weighing approximately 20 g are divided into three groups: one control group and two experimental groups of 20 animals each. A lethal dose of the Crocker tumor (S180) homogenate is implanted subcutaneously in all the animals. […]
# [8] = precursor 5-iodo-2'-deoxy(6-3H)uridine, read-out: IC50 (initial velocity of 3H incorporation)
# [9] = precursor L-(U-14C)aminoacids, read-out: IC50 (initial velocity of 14C incorporation)
# [10] = precursor 5-iodo-2'-deoxy(6-3H)uridine (Example 12)
# [11] = precursor L-(U-14C)aminoacids (Example 12)
structure (smiles),measurement,setting,value
"Nc1nc(S)c2[nH]cnc2n1 [2-amino-6-mercaptopurine, 2-Amino-6-mercaptopurine, reference compound]",pIC50,Ehrlich Carcinoma cells; precursor adenine-14C,< 3.22
same,pIC50,Ehrlich Carcinoma cells; precursor valine-14C,< 3.22
"Sc1ncnc2nc[nH]c12 [6-mercaptopurine, reference compound]",Period of survival (% of control),Yoshida tumor [1]; p.o. 5 × 20 mg/kg (Example 7),107 % of control
same,Period of survival (% of control),Yoshida tumor [1]; p.o. 5 × 40 mg/kg (Example 7),156 % of control
same,Period of survival (% of control),Yoshida tumor [2]; p.o. 5 × 20 mg/kg (Example 6),109 % of control
same,Period of survival (% of control),Yoshida tumor [2]; p.o. 5 × 40 mg/kg (Example 6),127 % of control
same,Period of survival (% of control),Zajdel ascitic hepatoma [3]; p.o. 5 × 20 mg/kg (Example 8),101 % of control
same,Period of survival (% of control),Zajdel ascitic hepatoma [3]; p.o. 5 × 40 mg/kg (Example 8),105 % of control
same,antitumor effect / average period of survival vs non-treated control,Zajdel ascitic hepatoma [3],ineffective; also recorded: inactive
same,pIC50,[4]; [8],< 2.00
same,pIC50,[4]; [9],< 3.64
"CN(C)CCOc1cc2c(c3ccccc13)-c1ccccc1C2=O.Cl [Benfluron, 5-[2-(N, N-Dimethylamino)ethoxy]-7-oxo-7H-benzo(c)fluorene hydrochloride, reference compound]",Average period of survival (% of control),Yoshida ascitic sarcoma; Benfluron 40 mg/kg p.o. once,104 % of control
same,Average period of survival (days),Yoshida ascitic sarcoma; Benfluron 40 mg/kg p.o. once,7.67 (6.9; 8.6) days
same,Average period of survival (% of control),Yoshida ascitic sarcoma; Benfluron 80 mg/kg p.o. once,104 % of control
same,Average period of survival (days),Yoshida ascitic sarcoma; Benfluron 80 mg/kg p.o. once,7.61 (6.5; 8.9) days
same,Average period of survival (% of control),Yoshida ascitic sarcoma; Benfluron 160 mg/kg p.o. once,106 % of control
same,Average period of survival (days),Yoshida ascitic sarcoma; Benfluron 160 mg/kg p.o. once,7.79 (6.9; 8.8) days
Nc1ncnc2c1ncn2C(=O)NCCCl [N-(2-chloroethyl)-6-aminopurine-9-carboxamide],biological activity,[5],did not exhibit any biological activity
"CCN(CC)C(=O)Nc1ncnc2nc[nH]c12 [N-(6-purinyl)-N', N'-diethylurea]",antineoplastic action,[5],weak antineoplastic action
"O=C(NCCCl)Sc1ncnc2nc[nH]c12 [Substance Ia, 6-[N-(2-Chloroethyl)carbamoyl]thiopurine]",Period of survival (% of control),Yoshida tumor [1]; p.o. 5 × 100 mg/kg (Example 7),124 % of control
same,Period of survival (% of control),Yoshida tumor [1]; p.o. 5 × 200 mg/kg (Example 7),158 % of control
same,Average period of survival (% of control),Yoshida ascitic sarcoma; Ia 4 × 50 mg/kg p.o.,125 % of control
same,Average period of survival (days),Yoshida ascitic sarcoma; Ia 4 × 50 mg/kg p.o.,9.20 (7.6; 11.1) days
same,Average period of survival (% of control),Yoshida ascitic sarcoma; Ia 4 × 100 mg/kg p.o.,149 % of control
same,Average period of survival (days),Yoshida ascitic sarcoma; Ia 4 × 100 mg/kg p.o.,10.94 (9.0; 13.3) days
same,Average period of survival (% of control),Yoshida ascitic sarcoma; Ia 4 × 200 mg/kg p.o.,121 % of control
same,Average period of survival (days),Yoshida ascitic sarcoma; Ia 4 × 200 mg/kg p.o.,8.86 (7.4; 10.7) days
same,survival vs control group,"Yoshida ascitic sarcoma; Yoshida ascitic sarcoma, in words, over 29 days",survive longer
same,effectiveness vs thioguanine and/or 6-mercaptopurine,"Ehrlich Carcinoma cells; Ehrlich ascites carcinoma cells, in words",more effective
same,pIC50,Ehrlich Carcinoma cells; precursor adenine-14C,4.03
same,pIC50,Ehrlich Carcinoma cells; precursor valine-14C,3.81
same,Period of survival (% of control),Yoshida tumor [2]; p.o. 5 × 100 mg/kg (Example 6),134 % of control
same,Period of survival (% of control),Yoshida tumor [2]; p.o. 5 × 200 mg/kg (Example 6),127 % of control
same,LD50,"[6]; in vivo, small rodents, oral route",≥ 3000 mg/kg
same,toxicity,[6]; in words,practically non-toxic
same,Period of survival (% of control),Zajdel ascitic hepatoma [7]; p.o. 5 × 100 mg/kg,117 % of control
same,Period of survival (% of control),Zajdel ascitic hepatoma [7]; p.o. 5 × 200 mg/kg,126 % of control
same,Tumor weight (% of control),Ehrlich tumor (STE); p.o. 8 × 100 mg/kg,80 % of control
same,Tumor weight (% of control),Ehrlich tumor (STE); p.o. 8 × 200 mg/kg,70 % of control
same,pIC50,tumor cells; [10],4.41
same,pIC50,tumor cells; [11],4.21
same,average values of the tumor weight vs non-treated control,Crocker tumor (S180),Statistically significantly lower average values of the tumor weight
same,Period of survival (% of control),Zajdel ascitic hepatoma [3]; p.o. 5 × 100 mg/kg (Example 8),120 % of control
same,Period of survival (% of control),Zajdel ascitic hepatoma [3]; p.o. 5 × 200 mg/kg (Example 8),128 % of control
same,antitumor effect / average period of survival vs non-treated control,Zajdel ascitic hepatoma [3],statistically significantly higher average period of survival
same,pIC50,[4]; [8],4.60
same,pIC50,[4]; [9],4.59
same,effectiveness vs thioguanine and/or 6-mercaptopurine,"[4]; Yoshida ascites tumor cells, in words",more effective
"O=C(NCCCl)Oc1ncnc2nc[nH]c12 [Substance Ib, 6-[N-(2-Chloroethyl)carbamoyl]oxypurine]",Period of survival (% of control),Yoshida tumor [2]; p.o. 5 × 100 mg/kg (Example 6),100 % of control
same,Period of survival (% of control),Yoshida tumor [2]; p.o. 5 × 200 mg/kg (Example 6),83 % of control
same,Tumor weight (% of control),Ehrlich tumor (STE); p.o. 8 × 100 mg/kg,76 % of control
same,Tumor weight (% of control),Ehrlich tumor (STE); p.o. 8 × 200 mg/kg,81 % of control
same,pIC50,tumor cells; [10],4.26
same,pIC50,tumor cells; [11],4.10
